Reference: the NIST ThermoML archive (doi:10.1021/je900387e)
Numbers after ± are expanded uncertainties.

Experiment: xn = mol fraction of the nth substance listed
Conditions: Liquid, Pycnometric method

Cn1ccnc1 [1-methylimidazole] + O=C=O
Conditions	mass density [kg/m3]
308.2 K, 7790 kPa, x1 = 0.0247	745 ± 4
308.2 K, 7860 kPa, x1 = 0.0102	638 ± 4
308.2 K, 7870 kPa, x1 = 0.0102	640 ± 4
308.2 K, 7900 kPa, x1 = 0.0102	646 ± 4
308.2 K, 7940 kPa, x1 = 0.0102	652 ± 4
308.2 K, 7950 kPa, x1 = 0.0102	655 ± 4
308.2 K, 7970 kPa, x1 = 0.0247	755 ± 4
308.2 K, 7980 kPa, x1 = 0.0102	661 ± 4
308.2 K, 8020 kPa, x1 = 0.0102	667 ± 4
308.2 K, 8080 kPa, x1 = 0.0102	676 ± 4
308.2 K, 8160 kPa, x1 = 0.0102	686 ± 4
308.2 K, 8200 kPa, x1 = 0.0247	766 ± 4
308.2 K, 8260 kPa, x1 = 0.0102	696 ± 4
308.2 K, 8380 kPa, x1 = 0.0102	706 ± 4
308.2 K, 8470 kPa, x1 = 0.0247	777 ± 4
308.2 K, 8520 kPa, x1 = 0.0102	716 ± 4
308.2 K, 8590 kPa, x1 = 0.0487	838 ± 4
308.2 K, 8680 kPa, x1 = 0.0487	841 ± 4
308.2 K, 8690 kPa, x1 = 0.0102	727 ± 4
308.2 K, 8790 kPa, x1 = 0.0487	844 ± 4
308.2 K, 8820 kPa, x1 = 0.0247	790 ± 4
308.2 K, 8910 kPa, x1 = 0.0102	738 ± 4
308.2 K, 8910 kPa, x1 = 0.0487	847 ± 4
308.2 K, 9040 kPa, x1 = 0.0487	849 ± 4
308.2 K, 9150 kPa, x1 = 0.0102	750 ± 4
308.2 K, 9150 kPa, x1 = 0.0487	852 ± 4
308.2 K, 9250 kPa, x1 = 0.0247	802 ± 4
308.2 K, 9290 kPa, x1 = 0.0487	853 ± 4
308.2 K, 9440 kPa, x1 = 0.0102	761 ± 4
308.2 K, 9450 kPa, x1 = 0.0487	858 ± 4
308.2 K, 9600 kPa, x1 = 0.0487	860 ± 4
308.2 K, 9750 kPa, x1 = 0.0247	815 ± 4
308.2 K, 9750 kPa, x1 = 0.0487	863 ± 4
308.2 K, 9800 kPa, x1 = 0.0102	773 ± 4
308.2 K, 9850 kPa, x1 = 0.1024	937 ± 4
308.2 K, 9920 kPa, x1 = 0.0487	866 ± 4
308.2 K, 10030 kPa, x1 = 0.1024	939 ± 4
308.2 K, 10130 kPa, x1 = 0.0247	824 ± 4
308.2 K, 10200 kPa, x1 = 0.0102	786 ± 4
308.2 K, 10360 kPa, x1 = 0.1024	942 ± 4
308.2 K, 10560 kPa, x1 = 0.0247	833 ± 4
308.2 K, 10630 kPa, x1 = 0.1024	945 ± 4
308.2 K, 10700 kPa, x1 = 0.0102	799 ± 4
308.2 K, 11000 kPa, x1 = 0.1024	948 ± 4
308.2 K, 11070 kPa, x1 = 0.0247	842 ± 4
308.2 K, 11250 kPa, x1 = 0.0102	812 ± 4
308.2 K, 11310 kPa, x1 = 0.1024	951 ± 4
308.2 K, 11620 kPa, x1 = 0.0247	851 ± 4
308.2 K, 11710 kPa, x1 = 0.1024	954 ± 4
308.2 K, 11920 kPa, x1 = 0.0102	826 ± 4
308.2 K, 12010 kPa, x1 = 0.1024	956 ± 4
308.2 K, 12240 kPa, x1 = 0.0247	860 ± 4
308.2 K, 12460 kPa, x1 = 0.1024	960 ± 4
308.2 K, 12590 kPa, x1 = 0.0247	865 ± 4
308.2 K, 12610 kPa, x1 = 0.0102	840 ± 4
308.2 K, 12820 kPa, x1 = 0.1024	963 ± 4
308.2 K, 12940 kPa, x1 = 0.0247	870 ± 4
308.2 K, 13250 kPa, x1 = 0.1024	966 ± 4
308.2 K, 13310 kPa, x1 = 0.0247	875 ± 4
308.2 K, 13440 kPa, x1 = 0.0102	859 ± 4
308.2 K, 13690 kPa, x1 = 0.1024	969 ± 4
308.2 K, 13720 kPa, x1 = 0.0247	880 ± 4
308.2 K, 14140 kPa, x1 = 0.0247	885 ± 4
308.2 K, 14140 kPa, x1 = 0.1024	972 ± 4
308.2 K, 14560 kPa, x1 = 0.0102	875 ± 4
308.2 K, 14570 kPa, x1 = 0.1024	975 ± 4
308.2 K, 14610 kPa, x1 = 0.0247	890 ± 4
308.2 K, 14990 kPa, x1 = 0.0102	880 ± 4
308.2 K, 15060 kPa, x1 = 0.0247	895 ± 4
308.2 K, 15080 kPa, x1 = 0.1024	978 ± 4
308.2 K, 15430 kPa, x1 = 0.0102	886 ± 4
308.2 K, 15540 kPa, x1 = 0.1024	981 ± 4
308.2 K, 15600 kPa, x1 = 0.0247	901 ± 4
308.2 K, 16080 kPa, x1 = 0.1024	984 ± 4
308.2 K, 16570 kPa, x1 = 0.1024	987 ± 4
308.2 K, 17250 kPa, x1 = 0.1024	991 ± 4
308.2 K, 17650 kPa, x1 = 0.1024	994 ± 4
308.2 K, 18340 kPa, x1 = 0.1024	998 ± 4
308.2 K, 18880 kPa, x1 = 0.1024	1001 ± 4
309.8 K, 8020 kPa, x1 = 0.0102	543 ± 4
309.8 K, 8030 kPa, x1 = 0.0102	551 ± 4
309.8 K, 8040 kPa, x1 = 0.0102	560 ± 4
309.8 K, 8060 kPa, x1 = 0.0102	571 ± 4
309.8 K, 8070 kPa, x1 = 0.0102	581 ± 4
309.8 K, 8090 kPa, x1 = 0.0102	589 ± 4
309.8 K, 8110 kPa, x1 = 0.0102	600 ± 4
309.8 K, 8140 kPa, x1 = 0.0102	612 ± 4
309.8 K, 8180 kPa, x1 = 0.0102	624 ± 4
309.8 K, 8230 kPa, x1 = 0.0102	636 ± 4
309.8 K, 8300 kPa, x1 = 0.0102	649 ± 4
309.8 K, 8390 kPa, x1 = 0.0102	663 ± 4
309.8 K, 8500 kPa, x1 = 0.0102	677 ± 4
309.8 K, 8650 kPa, x1 = 0.0102	691 ± 4
309.8 K, 8830 kPa, x1 = 0.0102	707 ± 4
309.8 K, 9090 kPa, x1 = 0.0102	723 ± 4
309.8 K, 9420 kPa, x1 = 0.0102	740 ± 4
309.8 K, 9830 kPa, x1 = 0.0102	758 ± 4
309.8 K, 10210 kPa, x1 = 0.0102	772 ± 4
309.8 K, 10880 kPa, x1 = 0.0102	790 ± 4
309.8 K, 11970 kPa, x1 = 0.0102	816 ± 4
309.8 K, 12530 kPa, x1 = 0.0102	826 ± 4
309.8 K, 13140 kPa, x1 = 0.0102	836 ± 4
309.8 K, 13680 kPa, x1 = 0.0102	846 ± 4
313.1 K, 8750 kPa, x1 = 0.0102	576 ± 4
313.1 K, 8770 kPa, x1 = 0.0102	581 ± 4
313.1 K, 8810 kPa, x1 = 0.0102	589 ± 4
313.1 K, 8850 kPa, x1 = 0.0102	597 ± 4
313.1 K, 8890 kPa, x1 = 0.0102	606 ± 4
313.1 K, 8900 kPa, x1 = 0.0247	717 ± 4
313.1 K, 8940 kPa, x1 = 0.0102	615 ± 4
313.1 K, 8990 kPa, x1 = 0.0102	624 ± 4
313.1 K, 9000 kPa, x1 = 0.0247	723 ± 4
313.1 K, 9040 kPa, x1 = 0.0102	633 ± 4
313.1 K, 9120 kPa, x1 = 0.0102	643 ± 4
313.1 K, 9120 kPa, x1 = 0.0247	729 ± 4
313.1 K, 9200 kPa, x1 = 0.0102	653 ± 4
313.1 K, 9260 kPa, x1 = 0.0247	737 ± 4
313.1 K, 9300 kPa, x1 = 0.0102	663 ± 4
313.1 K, 9400 kPa, x1 = 0.0247	744 ± 4
313.1 K, 9420 kPa, x1 = 0.0102	673 ± 4
313.1 K, 9550 kPa, x1 = 0.0102	684 ± 4
313.1 K, 9560 kPa, x1 = 0.0247	751 ± 4
313.1 K, 9700 kPa, x1 = 0.0102	695 ± 4
313.1 K, 9730 kPa, x1 = 0.0247	759 ± 4
313.1 K, 9900 kPa, x1 = 0.0102	707 ± 4
313.1 K, 9940 kPa, x1 = 0.0247	766 ± 4
313.1 K, 10070 kPa, x1 = 0.0487	827 ± 4
313.1 K, 10130 kPa, x1 = 0.0102	719 ± 4
313.1 K, 10170 kPa, x1 = 0.0247	774 ± 4
313.1 K, 10190 kPa, x1 = 0.0487	830 ± 4
313.1 K, 10320 kPa, x1 = 0.0487	833 ± 4
313.1 K, 10380 kPa, x1 = 0.0102	731 ± 4
313.1 K, 10440 kPa, x1 = 0.0487	835 ± 4
313.1 K, 10560 kPa, x1 = 0.0487	838 ± 4
313.1 K, 10570 kPa, x1 = 0.0247	786 ± 4
313.1 K, 10690 kPa, x1 = 0.0487	841 ± 4
313.1 K, 10700 kPa, x1 = 0.0102	744 ± 4
313.1 K, 10830 kPa, x1 = 0.0487	843 ± 4
313.1 K, 10870 kPa, x1 = 0.0247	794 ± 4
313.1 K, 10990 kPa, x1 = 0.0487	846 ± 4
313.1 K, 11080 kPa, x1 = 0.0102	758 ± 4
313.1 K, 11130 kPa, x1 = 0.0487	849 ± 4
